Source: patent publication US8952024B2, “Herbicidal pyrimidone derivatives” (E I du Pont de Nemours and Company, priority 2009, dated 2015)

Columns and labels:
Assay in all cases: Test B pre-/postemergence plant response
Type in all cases: in vivo
[1] = system: morningglory (Ipomoea coccinea); conditions: Postemergence
In short: (§1)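 Compound in solvent + surfactant applied pre-em (loam/sand) or post-em (plants 2–18 cm, peat medium); greenhouse hold 13–15 days; visual 0–100 control score.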

[2] = system: Italian ryegrass (Lolium multiflorum); conditions: Postemergence
In short: as §1

[3] = system: wheat (Triticum aestivum); conditions: Postemergence
In short: as §1

[4] = system: cocklebur (Xanthium strumarium); conditions: Postemergence
In short: as §1

[5] = system: yellow nutsedge (Cyperus esculentus); conditions: Postemergence
In short: as §1

[6] = system: soybean (Glycine max); conditions: Postemergence
In short: as §1

[7] = system: velvetleaf (Abutilon theophrasti); conditions: Postemergence
In short: as §1

[8] = system: bermudagrass (Cynodon dactylon); conditions: for Bermudagrass plant response rating (0 to 100 scale): 62 g ai/ha, postemergence, 0 is no effect, 100 is complete control; for Plant response rating, Bermudagrass: Postemergence
In short: as §1

[9] = system: large crabgrass (Digitaria sanguinalis); conditions: Postemergence
In short: as §1

[10] = system: kochia (Kochia scoparia); conditions: Postemergence
In short: as §1

[11] = system: downy bromegrass (Bromus tectorum); conditions: for Bromegrass, Downy plant response rating (0 to 100 scale): 62 g ai/ha, postemergence, 0 is no effect, 100 is complete control; for Plant response rating, Bromegrass, Downy: Postemergence
In short: as §1

[12] = system: woolly cupgrass (Eriochloa villosa); conditions: Postemergence
In short: as §1

[13] = 31 g ai/ha, 0 to 100 scale (0 no effect, 100 complete control)
[14] = 125 g ai/ha, scale 0 to 100 (0 no effect, 100 complete control)
[15] = 250 g ai/ha, scale 0 to 100 (0 no effect, 100 complete control), 13 to 15 days

Row | Compound | Plant response rating, Morningglory [1, 13] | Plant response rating, Morningglory [1, 14] | Plant response rating, Morningglory [1, 15] | Plant response rating, Ryegrass, Italian [2, 13] | Plant response rating, Ryegrass, Italian [2, 14] | Plant response rating, Ryegrass, Italian [2, 15] | Plant response rating, Wheat [3, 13] | Plant response rating, Wheat [3, 14] | Plant response rating, Wheat [3, 15] | Plant response rating, Cocklebur [4, 13] | Plant response rating, Cocklebur [4, 14] | Plant response rating, Cocklebur [4, 15] | Plant response rating, Nutsedge, Yellow [5, 13] | Plant response rating, Nutsedge, Yellow [5, 14] | Plant response rating, Nutsedge, Yellow [5, 15] | Plant response rating, Soybean [6, 13] | Plant response rating, Soybean [6, 14] | Plant response rating, Soybean [6, 15] | Plant response rating, Velvetleaf [7, 13] | Plant response rating, Velvetleaf [7, 14] | further results
1 | O=C1CCCC(O)=C1C(=O)c1cnc(-c2ccccc2)n(C2CCSCC2)c1=O [Compound 164] | 90 | 98 | 100 | 5 | 20 | 40 | 0 | 35 | 50 | 98 | 100 | 100 | 40 | 70 | 75 | 80 | 100 | 100 | 70 | 80 | Plant response rating, Velvetleaf [7, 15]: 95; Bermudagrass plant response rating (0 to 100 scale) ([8]; 13 to 15 days): 98; Plant response rating, Bermudagrass [8, 13]: 70; Plant response rating, Bermudagrass [8, 14]: 98; Plant response rating, Bermudagrass [8, 15]: 100; Plant response rating, Crabgrass, Large [9, 13]: 95; Plant response rating, Crabgrass, Large [9, 14]: 98; Plant response rating, Crabgrass, Large [9, 15]: 100; Plant response rating, Kochia [10, 13]: 98; Plant response rating, Kochia [10, 14]: 100; Plant response rating, Kochia [10, 15]: 100; Bromegrass, Downy plant response rating (0 to 100 scale) ([11]; 13 to 15 days): 80; Plant response rating, Bromegrass, Downy [11, 13]: 40; Plant response rating, Bromegrass, Downy [11, 14]: 85; Plant response rating, Bromegrass, Downy [11, 15]: 95; Plant response rating, Cupgrass, Woolly [12, 13]: 75; Plant response rating, Cupgrass, Woolly [12, 14]: 98; Plant response rating, Cupgrass, Woolly [12, 15]: 100
2 | O=C1CCCC(O)=C1C(=O)c1cnc(-c2cc(F)cc(F)c2)n(C2CCCCC2)c1=O [Compound 181] | 95 | 100 | 100 | 10 | 60 | 65 | 40 | 50 | 70 | 100 | 100 | 100 | 60 | 80 | 85 | 100 | 100 | 100 | 100 | 100 | Plant response rating, Velvetleaf [7, 15]: 100; Bermudagrass plant response rating (0 to 100 scale) ([8]; 13 to 15 days): 100; Plant response rating, Bermudagrass [8, 13]: 100; Plant response rating, Bermudagrass [8, 14]: 100; Plant response rating, Bermudagrass [8, 15]: 100; Plant response rating, Crabgrass, Large [9, 13]: 98; Plant response rating, Crabgrass, Large [9, 14]: 100; Plant response rating, Crabgrass, Large [9, 15]: 100; Plant response rating, Kochia [10, 13]: 65; Plant response rating, Kochia [10, 14]: 100; Plant response rating, Kochia [10, 15]: 100; Bromegrass, Downy plant response rating (0 to 100 scale) ([11]; 13 to 15 days): 50; Plant response rating, Bromegrass, Downy [11, 13]: 40; Plant response rating, Bromegrass, Downy [11, 14]: 60; Plant response rating, Bromegrass, Downy [11, 15]: 85; Plant response rating, Cupgrass, Woolly [12, 13]: 80; Plant response rating, Cupgrass, Woolly [12, 14]: 100; Plant response rating, Cupgrass, Woolly [12, 15]: 100
3 | Cc1ccc(Cl)cc1-n1c(-c2cccc(F)c2)ncc(C(=O)C2=C(O)CCCC2=O)c1=O [Compound 184] | 40 | 100 | 100 | 20 | 45 | 60 | 30 | 55 | 60 | 100 | 100 | 100 | 35 | 45 | 75 | 98 | 100 | 100 | 85 | 100 | Plant response rating, Velvetleaf [7, 15]: 100; Bermudagrass plant response rating (0 to 100 scale) ([8]; 13 to 15 days): 100; Plant response rating, Bermudagrass [8, 13]: 98; Plant response rating, Bermudagrass [8, 14]: 100; Plant response rating, Bermudagrass [8, 15]: 100; Plant response rating, Crabgrass, Large [9, 13]: 100; Plant response rating, Crabgrass, Large [9, 14]: 100; Plant response rating, Crabgrass, Large [9, 15]: 100; Plant response rating, Kochia [10, 13]: 0; Plant response rating, Kochia [10, 14]: 5; Plant response rating, Kochia [10, 15]: 10; Bromegrass, Downy plant response rating (0 to 100 scale) ([11]; 13 to 15 days): 50; Plant response rating, Bromegrass, Downy [11, 13]: 40; Plant response rating, Bromegrass, Downy [11, 14]: 50; Plant response rating, Bromegrass, Downy [11, 15]: 60; Plant response rating, Cupgrass, Woolly [12, 13]: 75; Plant response rating, Cupgrass, Woolly [12, 14]: 100; Plant response rating, Cupgrass, Woolly [12, 15]: 100
